Experimental data taken from US7589089B2, “Inhibitors for GlyT-1” (Hoffmann-La Roche Inc., priority 2006, dated 2009).

The molecules below were run against T1, mGlyT-1b (Mus musculus, UniProt P28571) (assay: Glycine Uptake Inhibition Assay (mGlyT-1b)).
T1 construct: host or cells: Flp-in-CHO
T1 sequence (P28571 1-651 isoform P28571-2): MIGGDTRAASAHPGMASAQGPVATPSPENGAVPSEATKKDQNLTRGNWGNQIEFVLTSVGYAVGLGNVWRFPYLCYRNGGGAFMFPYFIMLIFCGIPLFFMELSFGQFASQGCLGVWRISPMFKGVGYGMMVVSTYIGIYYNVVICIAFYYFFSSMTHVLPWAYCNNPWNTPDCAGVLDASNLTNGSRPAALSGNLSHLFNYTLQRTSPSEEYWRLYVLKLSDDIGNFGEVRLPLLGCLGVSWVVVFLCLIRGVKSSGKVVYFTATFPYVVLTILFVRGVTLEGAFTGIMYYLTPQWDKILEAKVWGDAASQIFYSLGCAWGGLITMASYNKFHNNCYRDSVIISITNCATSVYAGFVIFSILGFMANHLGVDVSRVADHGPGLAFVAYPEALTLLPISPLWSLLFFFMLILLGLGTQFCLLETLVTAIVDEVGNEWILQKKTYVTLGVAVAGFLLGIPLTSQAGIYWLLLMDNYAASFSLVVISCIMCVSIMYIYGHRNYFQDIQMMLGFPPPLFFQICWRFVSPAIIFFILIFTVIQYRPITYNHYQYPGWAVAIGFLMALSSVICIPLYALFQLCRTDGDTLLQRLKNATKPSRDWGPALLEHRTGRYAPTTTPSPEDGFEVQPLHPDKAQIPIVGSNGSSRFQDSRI
Type: cell-based
Experimental: DMEM complete medium: Nutrient mixture F-12 (Gibco Life-technologies), fetal bovine serum (FBS) 5%, (Gibco life technologies), Penicillin/Streptomycin 1% (Gibco life technologies), Hygromycin 0.6 mg/ml (Gibco life technologies), Glutamine 1 mM Gibco life technologies)
Uptake buffer (UB): 150 mM NaCl, 10 mM Hepes-Tris, pH 7.4, 1 mM CaCl2, 2.5 mM KCl, 2.5 mM MgSO4, 10 mM (+) D-glucose.
Flp-in™-CHO (Invitrogen Cat n° R758-07) cells stably transfected with mGlyT1b cDNA.
Glycine Uptake Inhibition Assay (mGlyT-1b)
On day 1 mammalian cells, (Flp-in™-CHO), transfected with mGlyT-1b cDNA, were plated at the density of 40,000 cells/well in complete F-12 medium, without hygromycin in 96-well culture plates. On day 2, the medium was aspirated and the cells were washed twice with uptake buffer (UB). The cells were then incubated for 20 min at 22° C. with either (i) no potential competitor, (ii) 10 mM non-radioactive glycine, (iii) a concentration of a potential inhibitor. A range of concentrations of the potential inhibitor was used to generate data for calculating the concentration of inhibitor resulting in 50% of the effect (e.g. IC50, the concentration of the competitor inhibiting glycine uptake of 50%). A solution was then immediately added containing [^3H]-glycine 60 nM (11-16 Ci/mmol) and 25 μM non-radioactive glycine. The plates were incubated with gentle shaking and the reaction was stopped by aspiration of the mixture and washing (three times) with ice-cold UB. The cells were lysed with scintillation liquid, shaken 3 hours and the radioactivity in the cells was counted using a scintillation counter.
`O=C(CN(Cc1ccccc1Cl)C(=O)c1cc2ccccc2s1)Nc1cccc(F)c1` [Example 57, Benzo[b]thiophene-2-carboxylic acid (2-chloro-benzyl)-[(3-fluoro-phenylcarbamoyl)-methyl]-amide] gave an IC50 of 88 nM. For `O=C(CN(Cc1ccccc1Cl)C(=O)c1ccc(Cl)cc1)Nc1cccc(F)c1` [Example 59, 4-Chloro-N-(2-chloro-benzyl)-N-[(3-fluoro-phenylcarbamoyl)-methyl]-benzamide], the IC50 was 166 nM. `O=C(CN(Cc1ccccc1Cl)C(=O)c1ccc(OC(F)(F)F)cc1)Nc1cccc(F)c1` [Example 60, N-(2-Chloro-benzyl)-N-[(3-fluoro-phenylcarbamoyl)-methyl]-4-trifluoromethoxy-benzamide] gave an IC50 of 107 nM. Molecule `N#Cc1ccc(C(=O)N(CC(=O)Nc2cccc(F)c2)Cc2ccccc2Cl)cc1` [Example 62, N-(2-Chloro-benzyl)-4-cyano-N-[(3-fluoro-phenylcarbamoyl)-methyl]-benzamide] has an IC50 of 357 nM. `O=C(CN(Cc1cc(F)cc(F)c1)C(=O)c1cc2ccccc2s1)Nc1cccc(F)c1` [Example 63, Benzo[b]thiophene-2-carboxylic acid (3,5-difluoro-benzyl)-[(3-fluoro-phenylcarbamoyl)-methyl]-amide] gave an IC50 of 70 nM. `O=C(CN(Cc1cc(F)cc(F)c1)C(=O)c1ccc(OC(F)(F)F)cc1)Nc1cccc(F)c1` [Example 65, N-(3,5-Difluoro-benzyl)-N-[(3-fluoro-phenylcarbamoyl)-methyl]-4-trifluoromethoxy-benzamide] showed an IC50 of 278 nM. In the case of `O=C(CN(Cc1ccc(F)c(F)c1)C(=O)c1cc2ccccc2s1)Nc1cccc(F)c1` [Example 66, Benzo[b]thiophene-2-carboxylic acid (3,4-difluoro-benzyl)-[(3-fluoro-phenylcarbamoyl)-methyl]-amide], the IC50 is reported as 167 nM. In the case of `O=C(CN(Cc1c(F)cccc1F)C(=O)c1cc2ccccc2s1)Nc1ccc(F)c(Cl)c1` [Example 69, Benzo[b]thiophene-2-carboxylic acid [(3-chloro-4-fluoro-phenylcarbamoyl)-methyl]-(2,6-difluoro-benzyl)-amide], the IC50 is reported as 90 nM. `O=C(CN(Cc1c(F)cccc1F)C(=O)c1ccc(OC(F)(F)F)cc1)Nc1ccc(F)c(Cl)c1` [Example 71, N-[(3-Chloro-4-fluoro-phenylcarbamoyl)-methyl]-N-(2,6-difluoro-benzyl)-4-trifluoromethoxy-benzamide] showed an IC50 of 107 nM. With `O=C(CN(Cc1ccccc1Cl)C(=O)c1cc2ccccc2s1)Nc1ccc(F)c(Cl)c1` [Example 72, Benzo[b]thiophene-2-carboxylic acid (2-chloro-benzyl)-[(3-chloro-4-fluoro-phenylcarbamoyl)-methyl]-amide] the IC50 was 205 nM. With `O=C(CN(Cc1ccccc1Cl)C(=O)c1ccc(Cl)cc1)Nc1ccc(F)c(Cl)c1` [Example 74, 4-Chloro-N-(2-chloro-benzyl)-N-[(3-chloro-4-fluoro-phenylcarbamoyl)-methyl]-benzamide] the IC50 was 142 nM. Molecule `O=C(CN(Cc1ccccc1Cl)C(=O)c1ccc(OC(F)(F)F)cc1)Nc1ccc(F)c(Cl)c1` [Example 75, N-(2-Chloro-benzyl)-N-[(3-chloro-4-fluoro-phenylcarbamoyl)-methyl]-4-trifluoromethoxy-benzamide] has an IC50 of 259 nM. `O=C(CN(Cc1ccccc1Cl)C(=O)c1ccc(F)cc1)Nc1ccc(F)c(Cl)c1` [Example 76, N-(2-Chloro-benzyl)-N-[(3-chloro-4-fluoro-phenylcarbamoyl)-methyl]-4-fluoro-benzamide] gave an IC50 of 159 nM. `N#Cc1ccc(C(=O)N(CC(=O)Nc2ccc(F)c(Cl)c2)Cc2ccccc2Cl)cc1` [Example 77, N-(2-Chloro-benzyl)-N-[(3-chloro-4-fluoro-phenylcarbamoyl)-methyl]-4-cyano-benzamide] gave an IC50 of 182 nM. Work on `O=C(CN(Cc1c(F)cccc1F)C(=O)c1ccc(F)cc1)Nc1ccc(F)c(Cl)c1` [Example 78, N-[(3-Chloro-4-fluoro-phenylcarbamoyl)-methyl]-N-(2,6-difluoro-benzyl)-4-fluoro-benzamide] yielded an IC50 of 282 nM. `O=C(CN(Cc1cccc(F)c1F)C(=O)c1cc2ccccc2s1)Nc1ccc(F)c(Cl)c1` [Example 80, Benzo[b]thiophene-2-carboxylic acid [(3-chloro-4-fluoro-phenylcarbamoyl)-methyl]-(2,3-difluoro-benzyl)-amide] gave an IC50 of 66 nM. `O=C(CN(Cc1cccc(F)c1F)C(=O)c1ccc(Cl)cc1)Nc1ccc(F)c(Cl)c1` [Example 82, 4-Chloro-N-[(3-chloro-4-fluoro-phenylcarbamoyl)-methyl]-N-(2,3-difluoro-benzyl)-benzamide] gave an IC50 of 108 nM. `O=C(CN(Cc1cccc(F)c1F)C(=O)c1ccc(OC(F)(F)F)cc1)Nc1ccc(F)c(Cl)c1` [Example 83, N-[(3-Chloro-4-fluoro-phenylcarbamoyl)-methyl]-N-(2,3-difluoro-benzyl)-4-trifluoromethoxy-benzamide] gave an IC50 of 78 nM. `O=C(CN(Cc1cccc(F)c1F)C(=O)c1ccc(F)cc1)Nc1ccc(F)c(Cl)c1` [Example 84, N-[(3-Chloro-4-fluoro-phenylcarbamoyl)-methyl]-N-(2,3-difluoro-benzyl)-4-fluoro-benzamide] was tested, and the IC50 was 178 nM. In the case of `N#Cc1ccc(C(=O)N(CC(=O)Nc2ccc(F)c(Cl)c2)Cc2cccc(F)c2F)cc1` [Example 85, N-[(3-Chloro-4-fluoro-phenylcarbamoyl)-methyl]-4-cyano-N-(2,3-difluoro-benzyl)-benzamide], the IC50 is reported as 123 nM. `N#Cc1ccc(C(=O)N(CC(=O)Nc2ccc(F)c(Cl)c2)Cc2c(F)cccc2F)cc1` [Example 88, N-[(3-Chloro-4-fluoro-phenylcarbamoyl)-methyl]-4-cyano-N-(2,6-difluoro-benzyl)-benzamide] showed an IC50 of 199 nM. Molecule `O=C(CN(Cc1cc(F)cc(F)c1)C(=O)c1ccc(Cl)cc1)Nc1ccc(F)c(Cl)c1` [Example 89, 4-Chloro-N-[(3-chloro-4-fluoro-phenylcarbamoyl)-methyl]-N-(3,5-difluoro-benzyl)-benzamide] has an IC50 of 306 nM. In the case of `O=C(CN(Cc1cc(F)cc(F)c1)C(=O)c1ccc(OC(F)(F)F)cc1)Nc1ccc(F)c(Cl)c1` [Example 90, N-[(3-Chloro-4-fluoro-phenylcarbamoyl)-methyl]-N-(3,5-difluoro-benzyl)-4-trifluoromethoxy-benzamide], the IC50 is reported as 288 nM. Work on `CC(C)(C)CCN(CC(=O)Nc1cccc(Cl)c1)C(=O)c1ccc(Cl)cc1` [Example 96, 4-Chloro-N-[(3-chloro-phenylcarbamoyl)-methyl]-N-(3,3-dimethyl-butyl)-benzamide] yielded an IC50 of 359 nM. `N#Cc1cccc(CN(CC(=O)Nc2cccc(Cl)c2)C(=O)c2ccc(Cl)cc2)c1` [Example 100, 4-Chloro-N-[(3-chloro-phenylcarbamoyl)-methyl]-N-(3-cyano-benzyl)-benzamide] was tested, and the IC50 was 192 nM. For `COc1ccccc1CN(CC(=O)Nc1cccc(Cl)c1)C(=O)c1ccc(Cl)cc1` [Example 102, 4-Chloro-N-[(3-chloro-phenylcarbamoyl)-methyl]-N-(2-methoxy-benzyl)-benzamide], the IC50 was 60 nM. In the case of `Cc1cccc(CN(CC(=O)Nc2cccc(Cl)c2)C(=O)c2ccc(Cl)cc2)c1` [Example 103, 4-Chloro-N-[(3-chloro-phenylcarbamoyl)-methyl]-N-(3-methyl-benzyl)-benzamide], the IC50 is reported as 142 nM. `Cc1ccccc1CN(CC(=O)Nc1cccc(Cl)c1)C(=O)c1ccc(Cl)cc1` [Example 104, 4-Chloro-N-[(3-chloro-phenylcarbamoyl)-methyl]-N-(2-methyl-benzyl)-benzamide] showed an IC50 of 209 nM. With `O=C(CN(Cc1cccc(Cl)c1)C(=O)c1ccc(Cl)cc1)Nc1cccc(Cl)c1` [Example 105, 4-Chloro-N-(3-chloro-benzyl)-N-[(3-chloro-phenylcarbamoyl)-methyl]-benzamide] the IC50 was 21 nM. Work on `O=C(CN(Cc1ccccc1Cl)C(=O)c1ccc(Cl)cc1)Nc1cccc(Cl)c1` [Example 106, 4-Chloro-N-(2-chloro-benzyl)-N-[(3-chloro-phenylcarbamoyl)-methyl]-benzamide] yielded an IC50 of 25 nM. `O=C(CN(Cc1ccco1)C(=O)c1ccc(Cl)cc1)Nc1cccc(Cl)c1` [Example 107, 4-Chloro-N-[(3-chloro-phenylcarbamoyl)-methyl]-N-furan-2-ylmethyl-benzamide] was tested, and the IC50 was 199 nM.
